This is an account of results in patent US20120149700A1, “2-CYANOPHENYL FUSED HETEROCYCLIC COMPOUNDS, AND COMPOSTIONS AND USES THEREOF” (priority 2007, published 2012).

The structures appear in SMILES notation.

For assay [1], the target named is T1, P2X2/3 (Homo sapiens, UniProt P56373+Q9UBL9).
T1 construct: expressed in transfected cells; host or cells: cell line stably expressing P2X2, stably transfected with P2X3 (e.g. HEK293 or 1321N1)
T1 sequence (Q9UBL9 1-471): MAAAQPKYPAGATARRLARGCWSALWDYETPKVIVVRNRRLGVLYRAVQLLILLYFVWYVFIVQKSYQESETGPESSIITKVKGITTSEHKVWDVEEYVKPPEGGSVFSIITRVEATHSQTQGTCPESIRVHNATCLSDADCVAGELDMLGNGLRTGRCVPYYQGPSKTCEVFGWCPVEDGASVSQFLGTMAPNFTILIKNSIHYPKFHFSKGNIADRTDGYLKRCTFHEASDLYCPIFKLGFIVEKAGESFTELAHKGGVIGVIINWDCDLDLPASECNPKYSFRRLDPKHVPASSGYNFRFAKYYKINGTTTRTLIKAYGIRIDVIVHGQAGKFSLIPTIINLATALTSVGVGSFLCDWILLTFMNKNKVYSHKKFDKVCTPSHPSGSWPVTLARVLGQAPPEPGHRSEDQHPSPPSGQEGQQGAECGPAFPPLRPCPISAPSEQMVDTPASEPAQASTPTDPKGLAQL
T1 sequence (P56373 1-397): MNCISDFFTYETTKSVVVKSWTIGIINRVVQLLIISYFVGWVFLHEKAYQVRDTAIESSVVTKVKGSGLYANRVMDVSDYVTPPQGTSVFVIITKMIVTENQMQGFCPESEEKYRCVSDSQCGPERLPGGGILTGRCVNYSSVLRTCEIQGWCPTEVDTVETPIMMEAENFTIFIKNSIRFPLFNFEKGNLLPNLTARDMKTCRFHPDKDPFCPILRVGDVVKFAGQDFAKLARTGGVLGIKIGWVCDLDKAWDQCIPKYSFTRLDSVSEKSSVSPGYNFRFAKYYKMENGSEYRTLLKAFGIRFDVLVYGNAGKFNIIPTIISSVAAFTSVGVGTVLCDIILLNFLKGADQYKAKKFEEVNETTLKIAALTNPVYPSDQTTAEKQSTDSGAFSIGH
Put plainly: Calcium uptake assay (P2X antagonist assay, inhibition of agonist-induced calcium influx), P2X2/3. The class given is cell-based. Particulars: inhibition of agonist-induced calcium influx in cells expressing the receptor. The text has this:
(§1) The human P2X2/3 chimera clone is created as described by Neelands et al, and then cloned into an expression vector as above. Receptors are expressed in cells (e.g., HEK293 or 1321N1 (obtained from the ECACC)) via transient transfection using standard lipid mediated transfection, or by creation of stable transfectants for each receptor. For expression of the P2X2/3 heteromeric receptor, the P2X3 expression vector is stably transfected into a cell line already stably expressing P2X2. P2X2/3 heteromer function is isolated using pharmacological methods. Cell lines are maintained in DMEM+5% Glutamax, the appropriate level of selective antibiotic, and 10% heat inactivated FBS.
(§2) Functional activity of compounds at the P2X receptor is determined by measuring their ability to inhibit agonist-induced calcium influx. Compounds are tested for antagonist activity against the P2X2/3 chimera, the P2X3 homomer, or the P2X2/3 heteromer. At the start of each screening day, the agonist EC50 is determined. Compound % inhibition or IC50s are subsequently determined using a pre-determined agonist concentration (EC50-90 depending on cell line) as a stimulus. The agonists used are αβMeATP, ATP, or other ATP analogs. Compounds may be tested at concentrations ranging from 1 pM to 10 μM.
(§3) To test for antagonist activity, cells expressing the appropriate receptor are seeded onto 96 or 384 well plates 18-24 hours prior to assay. […] Plates are incubated at 37° C. and then equilibrated at room temperature. Antagonism of agonist-induced calcium influx is measured using a fluorescent imaging plate reader (e.g. FLIPR^TETRA, Molecular Devices, Sunnyvale, Calif.). The assay comprises two stages: a pre-treatment phase followed by a treatment phase. Compounds may be tested as follows: For the pre-treatment phase, 50 μL of 3× concentration of test compound in HBSS is added to cells containing 100 μL of dye loading media to achieve a final concentration of 1× test compound. For the treatment phase, at a set interval after pre-treatment (1-30 minutes), 50 μl, of 1× test compound plus 4× agonist solution is added, resulting in a final concentration of 1× compound and 1× agonist. […] Responses are measured as (peak fluorescence after agonist addition) minus (baseline fluorescence prior to treatment). Percent inhibition is calculated as follows: […]
(§4) IC50 values are determined by analyzing dose response data in a 4 parameter logistic fit using GraphPad Prizm.

Assay [2] has as its target T2, P2X3 (Homo sapiens, UniProt P56373).
T2 construct: expressed in transfected cells; host or cells: e.g. HEK293 or 1321N1
T2 sequence (P56373 1-397): T1 sequence (P56373 1-397)
Briefly: Calcium uptake assay (P2X antagonist assay, inhibition of agonist-induced calcium influx), P2X3. The assay is classed as cell-based. Particulars: inhibition of agonist-induced calcium influx in cells expressing the receptor.
Excerpt: as §1, §2, §3, §4

The term IC50 denotes the concentration at which inhibition is half-maximal. On to `COc1ccc([C@@H](CC(=O)OC(C)(C)C)Nc2ncnc3c2CN(c2ccc(Cl)cc2C#N)CC3)cn1` [Compound 18, (R)-3-[6-(4-Chloro-2-cyano-phenyl)-5,6,7,8-tetrahydro-pyrido[4,3-d]pyrimidin-4-ylamino]-3-(6-methoxy-pyridin-3-yl)-propionic acid tert-butyl ester], for which the half-maximal inhibitory concentration (IC50) in assay [1] and in assay [2] was greater than 10000 nM in each case.

For the molecule `Cc1ccc(N2CCc3ncnc(NCc4cccc(-n5cnnc5)c4)c3C2)c(C#N)c1` [Compound 53, 5-Methyl-2-[4-(3-[1,2,4]triazol-4-yl-benzylamino)-7,8-dihydro-5H-pyrido[4,3-d]pyrimidin-6-yl]-benzonitrile], the IC50 in assay [1] was 324 nM; in assay [2], 65 nM.

`COc1ccc([C@@H](CCO)Nc2ncnc3c2CN(c2ccc(Cl)cc2C#N)CC3)cn1` [Compound 34, 5-Chloro-2-{4-[(R)-3-hydroxy-1-(6-methoxy-pyridin-3-yl)-propylamino]-7,8-dihydro-5H-pyrido[4,3-d]pyrimidin-6-yl}-benzonitrile]: the concentration for half-maximal inhibition (IC50) in assay [1] was determined as 105 nM; in assay [2], 33 nM.

Take `Cc1ccc(N2CCc3ncnc(NCc4ccc5ocnc5c4)c3C2)c(C#N)c1` [Compound 38, 2-{4-[(Benzooxazol-5-ylmethyl)-amino]-7,8-dihydro-5H-pyrido[4,3-d]pyrimidin-6-yl}-5-methyl-benzonitrile]: the IC50 in assay [1] worked out at 45 nM; in assay [2], 15 nM.

In the case of `Cc1ccc(N2CCc3ncnc(NCc4ccc(C)c(C#N)c4)c3C2)c(C#N)c1` [Compound 56], the results for the IC50 in assay [1] and in assay [2] were 82 nM and 63 nM, respectively.

Consider `Cc1ccc(N2CCc3ncnc(NCc4ccccn4)c3C2)c(C#N)c1` [Compound 29, 5-Methyl-2-{4-[(pyridin-2-ylmethyl)-amino]-7,8-dihydro-5H-pyrido[4,3-d]pyrimidin-6-yl}-benzonitrile], for which the IC50 in assay [1] was 1670 nM; in assay [2], 196 nM.

As for `Cc1ccc(N2CCc3ncnc(NC(CCO)c4ccc(C(F)(F)F)nc4)c3C2)c(C#N)c1` (stereo not shown) [Compound 25, 2-{4-[3-Hydroxy-1-(6-trifluoromethyl-pyridin-3-yl)-propylamino]-7,8-dihydro-5H-pyrido[4,3-d]pyrimidin-6-yl}-5-methyl-benzonitrile], the half-maximal inhibitory concentration (IC50) in assay [1] is 136 nM; in assay [2] it was 55 nM.

For `N#Cc1cc(Cl)ccc1N1CCc2ncnc(NCc3ccc(C(F)(F)F)cn3)c2C1` [Compound 17, 5-Chloro-2-{4-[(5-trifluoromethyl-pyridin-2-ylmethyl)-amino]-7,8-dihydro-5H-pyrido[4,3-d]pyrimidin-6-yl}-benzonitrile], the figures for the IC50 in assay [1] and in assay [2] were 4890 nM and 118 nM, respectively.

As to `Cc1ccc(N2CCc3ncnc(N[C@@H](CCO)c4ccc(C(F)(F)F)nc4)c3C2)c(C#N)c1` [Compound 65, 2-{4-[(S)-3-Hydroxy-1-(6-trifluoromethyl-pyridin-3-yl)-propylamino]-7,8-dihydro-5H-pyrido[4,3-d]pyrimidin-6-yl}-5-methyl-benzonitrile], the IC50 was 5420 nM in assay [1] and 806 nM in assay [2].

On to `Cc1ccc(N2CCc3ncnc(NCc4ccc5nccnc5c4)c3C2)c(C#N)c1` [Compound 79, 5-Methyl-2-(4-(quinoxalin-6-ylmethylamino)-7,8-dihydropyrido[4,3-d]pyrimidin-6(5H)-yl)benzonitrile], for which the results for the IC50 in assay [1] and in assay [2] were 67 nM and 34 nM, respectively.

Regarding `Cc1ccc(N2CCc3ncnc(NCc4ccc(C)c(N5CCOCC5)c4)c3C2)c(C#N)c1` [Compound 63, 5-Methyl-2-[4-(4-methyl-3-morpholin-4-yl-benzylamino)-7,8-dihydro-5H-pyrido[4,3-d]pyrimidin-6-yl]-benzonitrile], the figures for the IC50 in assay [1] and in assay [2] were 1120 nM and 96 nM, respectively.

As for `Cc1ccc(N2CCc3ncnc(NCc4ccc(C)c(-n5cncn5)c4)c3C2)c(C#N)c1` [Compound 40, 5-Methyl-2-{4-(4-methyl-3-[1,2,4]triazol-1-yl-benzylamino)-7,8-dihydro-5H-pyrido[4,3-d]pyrimidin-6-yl}-benzonitrile], the IC50 was determined as 92 nM in assay [1] and 21 nM in assay [2].

As to `COc1ccc(CNc2ncnc3c2CN(c2ccc(Br)cc2C#N)CC3)cn1` [Compound 14, 5-Bromo-2-(4-((6-methoxypyridin-3-yl)methylamino)-7,8-dihydropyrido[4,3-d]pyrimidin-6(5H)-yl)benzonitrile], the IC50 in assay [1] came to 325 nM; in assay [2], 78 nM.

Turning to `CN(C)c1ccc(CNc2ncnc3c2CN(c2ccc(Cl)cc2C#N)CC3)cn1` [Compound 12, 5-Chloro-2-(4-((6-(dimethylamino)pyridin-3-yl)methylamino)-7,8-dihydropyrido[4,3-d]pyrimidin-6(5H)-yl)benzonitrile], the IC50 in assay [1] was found to be 1190 nM; in assay [2], 628 nM.

For `COc1ccc(CNc2ncnc3c2CN(c2ccc(Cl)cc2C#N)CC3)cn1` [Compound 13, 5-Chloro-2-(4-((6-methoxypyridin-3-yl)methylamino)-7,8-dihydropyrido[4,3-d]pyrimidin-6(5H)-yl)benzonitrile], the IC50 came to 169 nM in assay [1] and 59 nM in assay [2].

Take `COc1ccc([C@@H](CC(=O)O)Nc2ncnc3c2CN(c2ccc(Cl)cc2C#N)CC3)cn1` [Compound 19, (R)-3-[6-(4-Chloro-2-cyano-phenyl)-5,6,7,8-tetrahydro-pyrido[4,3-d]pyrimidin-4-ylamino]-3-(6-methoxy-pyridin-3-yl)-propionic acid]: the IC50 is greater than 10000 nM in assay [1] and 1380 nM in assay [2].

For the molecule `Cc1ccc(N2CCc3ncnc(N[C@H](CCO)c4ccc(C(F)(F)F)nc4)c3C2)c(C#N)c1` [Compound 64, 2-{4-[(R)-3-Hydroxy-1-(6-trifluoromethyl-pyridin-3-yl)-propylamino]-7,8-dihydro-5H-pyrido[4,3-d]pyrimidin-6-yl}-5-methyl-benzonitrile], the IC50 in assay [1] is 59 nM; in assay [2] it was 23 nM.

On to `N#Cc1cc(F)ccc1N1CCc2ncnc(NCc3ccc(C(F)(F)F)nc3)c2C1` [Compound 9, 5-Fluoro-2-{4-[(6-trifluoromethyl-pyridin-3-ylmethyl)-amino]-7,8-dihydro-5H-pyrido[4,3-d]pyrimidin-6-yl}-benzonitrile], for which the IC50 in assay [1] stood at 11400 nM; in assay [2], 85 nM.

Regarding `N#Cc1ccccc1N1CCc2ncnc(NCc3ccc(C(F)(F)F)nc3)c2C1` [Compound 10, 2-{4-[(6-Trifluoromethyl-pyridin-3-ylmethyl)-amino]-7,8-dihydro-5H-pyrido[4,3-d]pyrimidin-6-yl}-benzonitrile], the IC50 in assay [1] came to 1810 nM; in assay [2], 63 nM.

`Cc1ccc(N2CCc3ncnc(NCc4ccc5cccnc5c4)c3C2)c(C#N)c1` [Compound 92, 5-Methyl-2-(4-(quinolin-7-ylmethylamino)-7,8-dihydropyrido[4,3-d]pyrimidin-6(5H)-yl)benzonitrile]: the figures for the IC50 in assay [1] and in assay [2] were 24 nM and 20 nM, respectively.
